Measurements from the supplement of paper PMC10307832.

Experiments:
Assay in all cases: relative viability (nuclei count vs DMSO), 5 days (fraction); higher = more cells survive
[1] = compound: CC1=NC=CC(=C1)C2=CC=C(C=C2)CC(=O)NC3=CC=C(C=C3)C4=CN=CC=C4 [Wnt-C59] + CS(=O)(=O)N1CCN(Cc2cc3nc(-c4cccc5[nH]ncc45)nc(N4CCOCC4)c3s2)CC1 [Pictilisib] (partner 1 µM)
Outline: (§1)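 Lung cancer cell lines in 1536-well plates got either a single drug or a fixed anchor-drug dose together with five library-drug doses (not always all listed) in √10 steps, by pin tool, on the day after seeding. Nuclei were counted after 5 days, and relative viability is the treated-to-vehicle ratio of nuclei counts. Values are medians of duplicate plates.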

[2] = compound: CS(=O)(=O)CCNCc1ccc(-c2ccc3ncnc(Nc4ccc(OCc5cccc(F)c5)c(Cl)c4)c3c2)o1 [Lapatinib] + Nc1nc2[nH]cc(CCc3ccc(C(=O)N[C@@H](CCC(=O)O)C(=O)O)cc3)c2c(=O)[nH]1 [Pemetrexed] (partner 0.2 µM)
Outline: as §1

[3] = compound: CS(=O)(=O)CCNCc1ccc(-c2ccc3ncnc(Nc4ccc(OCc5cccc(F)c5)c(Cl)c4)c3c2)o1 [Lapatinib] + NC(=O)Nc1cc(-c2cccc(F)c2)sc1C(=O)N[C@H]1CCCNC1 [AZD7762] (partner 0.2 µM)
Outline: as §1

[4] = compound: CS(=O)(=O)CCNCc1ccc(-c2ccc3ncnc(Nc4ccc(OCc5cccc(F)c5)c(Cl)c4)c3c2)o1 [Lapatinib] + CC(C)C[C@H](NC(=O)[C@H](Cc1ccccc1)NC(=O)c1cnccn1)B(O)O [Bortezomib] (partner 0.002 µM)
Outline: as §1

Row | Cell Line | relative viability ([1]; first compound 0.001 µM) | relative viability ([1]; first compound 0.01 µM) | relative viability ([1]; first compound 0.03162 µM) | relative viability ([1]; first compound 0.1 µM) | relative viability ([2]; first compound 0.02 µM) | relative viability ([2]; first compound 0.06325 µM) | relative viability ([2]; first compound 0.2 µM) | relative viability ([2]; first compound 0.6325 µM) | relative viability ([2]; first compound 2 µM) | relative viability ([3]; first compound 0.02 µM) | relative viability ([3]; first compound 0.06325 µM) | relative viability ([3]; first compound 0.2 µM) | relative viability ([3]; first compound 0.6325 µM) | relative viability ([3]; first compound 2 µM) | relative viability ([4]; first compound 0.02 µM) | relative viability ([4]; first compound 0.06325 µM) | relative viability ([4]; first compound 0.2 µM) | relative viability ([4]; first compound 0.6325 µM) | relative viability ([4]; first compound 2 µM)
1 | 201T | 0.704 | 0.676 | 0.676 | 0.698 | 0.377 | 0.288 | 0.298 | 0.359 | 0.326 | 0.513 | 0.585 | 0.601 | 0.591 | 0.608 | 1.06 | 1.12 | 1.08 | 1.08 | 1.14
2 | A549 | 0.534 | 0.541 | 0.408 | 0.484 |  |  |  |  |  |  |  |  |  |  |  |  |  |  | 
3 | A-427 | 0.756 | 0.554 | 0.717 | 0.799 | 0.928 | 0.949 | 0.946 | 1.06 | 0.963 | 0.709 | 0.658 | 0.745 | 0.793 | 0.681 |  | 0.953 | 1.05 | 0.901 | 0.976
4 | ABC-1 | 0.685 | 0.817 | 0.76 | 0.6 |  |  |  |  |  |  | 0.73 | 0.821 | 0.774 | 1.07 |  | 0.362 | 0.324 | 0.434 | 0.333
5 | BEN | 0.524 | 0.667 | 0.613 | 0.596 | 0.409 | 0.847 | 0.683 | 0.802 | 0.71 | 0.499 | 0.704 | 0.587 | 0.855 | 0.556 | 0.665 | 0.783 | 0.637 | 0.781 | 0.608
6 | CAL-12T | 0.259 |  | 0.436 | 0.511 | 1.16 | 1.31 | 1.37 | 1.04 | 0.744 |  | 0.615 | 0.515 | 0.587 | 0.592 |  | 0.765 | 0.822 | 0.743 | 0.649
7 | COR-L23 | 0.745 | 0.653 | 0.818 | 0.79 | 0.214 | 0.189 | 0.2 | 0.204 | 0.203 |  |  |  |  |  | 0.948 | 1.07 | 1.08 | 0.934 | 0.998
8 | COR-L 105 | 0.368 | 0.315 | 0.413 | 0.446 | 1.09 | 1.16 | 0.953 | 0.68 | 0.619 |  |  |  |  |  | 0.503 | 0.512 | 0.637 | 0.524 | 0.378
9 | Calu-6 | 0.856 | 0.973 | 0.998 | 0.873 |  |  |  |  |  |  |  |  |  |  | 0.887 | 0.951 | 1.03 | 1.02 | 0.906
10 | ChaGo-K-1 | 0.461 |  | 0.862 | 1.02 | 0.281 | 0.274 | 0.265 | 0.264 | 0.253 | 0.703 | 0.805 | 0.926 | 0.942 | 0.882 |  | 1.04 | 0.863 | 0.956 | 0.738
11 | EBC-1 | 0.444 | 0.349 | 0.299 | 0.418 |  |  |  |  |  |  |  |  |  |  | 0.542 | 0.561 | 0.539 | 0.534 | 0.455
12 | EKVX | 0.428 | 0.362 | 0.394 | 0.344 |  | 0.361 | 0.344 | 0.274 | 0.355 |  | 0.518 | 0.693 | 0.708 | 0.663 | 0.888 | 0.862 | 0.914 | 0.634 | 0.161
13 | EMC-BAC-2 | 0.5 | 0.491 | 0.463 | 0.453 |  | 0.452 | 0.475 | 0.475 | 0.45 |  | 0.938 | 1.05 | 1.13 | 1.18 | 0.871 | 0.999 | 1.07 | 0.991 | 0.87
14 | EPLC-272H | 0.366 | 0.265 | 0.343 | 0.338 | 0.342 | 0.235 | 0.337 | 0.288 | 0.21 |  | 0.191 | 0.228 | 0.175 | 0.252 |  | 0.837 | 0.904 | 1.01 | 0.781
15 | H3255 | 0.565 | 0.359 | 0.431 | 0.49 | 0.514 | 0.514 | 0.544 | 0.504 | 0.407 | 0.818 | 0.892 | 0.799 | 0.664 | 0.501 | 0.633 | 0.735 | 0.581 | 0.575 | 0.395
16 | HARA | 0.32 | 0.523 | 0.402 | 0.6 | 0.222 | 0.225 | 0.274 | 0.277 | 0.224 | 0.174 | 0.379 | 0.51 | 0.344 | 0.247 | 1.08 | 0.579 | 1.05 | 0.961 | 0.694
17 | HCC-15 | 0.74 | 0.711 | 0.732 | 0.723 |  | 0.212 | 0.223 | 0.212 | 0.203 |  | 1.09 | 1.24 | 1.24 | 1.16 |  | 1.06 | 1.02 | 1 | 0.979
18 | HCC-44 | 0.597 | 0.639 | 0.621 | 0.772 | 0.681 | 0.653 | 0.651 | 0.614 | 0.685 | 0.984 | 1.03 | 1.02 | 1.01 | 0.893 | 0.762 | 0.855 | 0.901 | 0.953 | 0.8
19 | HCC-78 | 0.22 | 0.185 | 0.226 | 0.257 |  | 0.832 | 0.882 | 0.841 | 0.936 |  | 0.528 | 0.422 | 0.599 | 0.564 | 0.546 |  | 0.463 | 0.407 | 0.297
20 | HCC-366 | 0.113 | 0.138 | 0.149 | 0.155 |  | 0.239 | 0.187 | 0.149 | 0.118 |  | 0.245 | 0.205 | 0.247 | 0.133 |  | 1.03 | 1.06 | 0.992 | 0.935
